Patent publication US20150133547A1, “METHOD AND COMPOSITION FOR TREATING GLAUCOMA” (priority 2013, published 2015)

Legend:
canine subjects [1] = assay: Adverse events in canine subjects after topical LC (daily ophthalmic examinations, toxicology studies of blood)
guinea pigs = settings: cited from earlier work
[2] = cited from earlier work
rats = settings: cited from earlier work
[3] = cited from earlier work; remark: listed apart in the source
canine subjects [4] = assay: Intraocular pressure (IOP) in canine subjects after topical LC drops, iCARE rebound tonometer; assay type: in vivo
Experimental: Preparations: The desired composition was DMSO 4.0%, PG 3.0% and LC 10 mg/ml (1% (by weight)), based upon the total composition.
A vehicle was prepared for use as a subsequent dilution (serial dilutions of the initial LC strength), by mixing 4.65 ml of BSS, 0.2 ml of DMSO, and 0.15 ml of PG, to yield a diluent vehicle comprising 4.0% DMSO and 3.0% PG, based upon the total composition. A total of 5 ml was prepared.
Methodology: Inventive compositions were prepared by simple mixing.
IOP was determined using an iCARE® rebound tonometer. Other commercially available IOP measuring devices (tonometers) may also be used.
Progressive dilutions of the composition set forth in Table 1 are shown in Table 2, below, starting with the original 2.5 ml volume preparation of Table 1. These subsequent dilutions were used in the canine experiments set forth below.
The experiments were conducted on canine subjects. Canine subjects have IOP's that are the same (˜10-20 mm/Hg) as that of a human subject. Canines and humans share a common susceptibility gene, SRBD1, for glaucoma risk. Consequently, canines are excellent surrogates to assess the results of the use of the inventive compositions on humans. The results of the experiments are set forth in Table 3, below, reflecting the concentration range of LC used as 0.002% to 0.100% (by weight).
Additional efficacy and safety experiments were conducted using an LC concentration of 0.600% (by weight) in the same animal model. This additional data confirms in two animals the safety and efficacy of topical LC in reducing intraocular pressure.
A series of experiments was run in the same canine model, using LC concentrations, prepared as above, and ranging from 0.200% to 0.700% (by weight).

Humans = settings: handling of pure or concentrated lambda-cyhalothrin; cited from earlier work
[5] = cited from earlier work; remark: listed apart in the source
rabbits = settings: cited from earlier work
[6] = Example 2, canine, topical LC 0.600%, Day 1, drop 9:30, IOP at 9:55
[7] = Example 2, canine, topical LC 0.600%, Day 1, drop 12:00, IOP at 12:30
[8] = Example 2, canine, topical LC 0.600%, Day 3, drop 9:45, IOP at 10:15
[9] = Example 2, canine, topical LC 0.600%, Day 3, drop 12:10, IOP at 12:40
[10] = Example 3, canine, topical LC 0.200%, Day 2, drop 7:40, IOP at 8:45
[11] = Example 3, canine, topical LC 0.300%, Day 3, drop 7:25, IOP at 7:25
[12] = Example 3, canine, topical LC 0.300%, Day 3, drop 12:25, IOP at 13:50
[13] = Example 3, canine, topical LC 0.300%, Day 3, drop 17:40, IOP at 17:30
[14] = Example 3, canine, topical LC 0.400%, Day 4, drop 7:25, IOP at 7:20
[15] = Example 3, canine, topical LC 0.400%, Day 4, drop 12:40, IOP at 12:35
[16] = Example 3, canine, topical LC 0.400%, Day 4, drop 17:25, IOP at 17:20
[17] = Example 3, canine, topical LC 0.500%, Day 5, drop 7:30, IOP at 7:20
[18] = Example 3, canine, topical LC 0.500%, Day 5, drop 12:40, IOP at 12:35
[19] = Example 3, canine, topical LC 0.600%, Day 8, drop 7:30, IOP at 7:00
[20] = Example 3, canine, topical LC 0.600%, Day 8, drop 12:05, IOP at 12:00
[21] = Example 3, canine, topical LC 0.600%, Day 8, drop 17:00, IOP at 16:30
[22] = Example 3, canine, topical LC 0.700%, Day 9, drop 7:05, IOP at 7:00
[23] = Example 3, canine, topical LC 0.700%, Day 9, drop 12:25, IOP at 12:20
[24] = Example 3, canine, topical LC 0.700%, Day 9, drop 17:05, IOP at 17:00
[25] = canine, topical LC 0.002%, Day 4, drop 8:30, IOP at 9:50
[26] = canine, topical LC 0.002%, Day 5, drop 9:00, IOP at 9:50
[27] = canine, topical LC 0.002%, Day 5, drop 14:30, IOP at 15:00
[28] = canine, topical LC 0.020%, Day 7, drop 9:00, IOP at 9:30
[29] = canine, topical LC 0.020%, Day 7, drop 15:00, IOP at 16:00
[30] = canine, topical LC 0.050%, Day 9, drop 9:00, IOP at 9:30
[31] = canine, topical LC 0.050%, Day 9, drop 15:00, IOP at 16:00
[32] = canine, topical LC 0.100%, Day 11, drop 9:00, IOP at 9:42
[33] = canine, topical LC 0.100%, Day 11, drop 15:00, IOP at 15:22

CC1(C)C(/C=C(\Cl)C(F)(F)F)C1C(=O)OC(C#N)c1cccc(Oc2ccccc2)c1 [LC, (R)-cyano(3-phenoxyphenyl) methyl (1S,3S)-rel-3-[(1Z)-2-chloro-3,3,3-trifluoro-1-propenyl]-2,2-dimethyl cyclopropane carboxylate]
local or systemic adverse events (canine subjects [1]; Example 1, daily complete ophthalmic examinations and toxicology studies of blood): no local or systemic adverse events
AE (canine subjects [1]; Example 2, topical LC 0.600%, Day 1, drop 9:30): 0
AE (canine subjects [1]; Example 2, topical LC 0.600%, Day 1, drop 12:00): 0
AE (canine subjects [1]; Example 2, topical LC 0.600%, Day 3, drop 9:45): 0
AE (canine subjects [1]; Example 2, topical LC 0.600%, Day 3, drop 12:10): 0
AE (canine subjects [1]; Example 3, topical LC 0.200%, Day 2, drop 7:40): 0
AE (canine subjects [1]; Example 3, topical LC 0.200%, Day 2, drop 12:22): 0
AE (canine subjects [1]; Example 3, topical LC 0.200%, Day 2, drop 17:05): 0
AE (canine subjects [1]; Example 3, topical LC 0.300%, Day 3, drop 7:25): 0
AE (canine subjects [1]; Example 3, topical LC 0.300%, Day 3, drop 12:25): 0
AE (canine subjects [1]; Example 3, topical LC 0.300%, Day 3, drop 17:40): 0
AE (canine subjects [1]; Example 3, topical LC 0.400%, Day 4, drop 7:25): 0
AE (canine subjects [1]; Example 3, topical LC 0.400%, Day 4, drop 12:40): 0
AE (canine subjects [1]; Example 3, topical LC 0.400%, Day 4, drop 17:25): 0
AE (canine subjects [1]; Example 3, topical LC 0.500%, Day 5, drop 7:30): 0
AE (canine subjects [1]; Example 3, topical LC 0.500%, Day 5, drop 12:40): 0
AE (canine subjects [1]; Example 3, topical LC 0.600%, Day 8, drop 7:30): 0
AE (canine subjects [1]; Example 3, topical LC 0.600%, Day 8, drop 12:05): 0
AE (canine subjects [1]; Example 3, topical LC 0.600%, Day 8, drop 17:00): 0
AE (canine subjects [1]; Example 3, topical LC 0.700%, Day 9, drop 7:05): 0
AE (canine subjects [1]; Example 3, topical LC 0.700%, Day 9, drop 12:25): 1
AE (canine subjects [1]; Example 3, topical LC 0.700%, Day 9, drop 17:05): 1
adverse events at doses other than 0.700% (canine subjects [1]; topical 0.002% to 0.600% LC): No adverse events
adverse events at the 0.700% dose (canine subjects [1]; topical 0.700% LC): minimal, reversible inferior conjunctival hyperemia
AE (adverse event) (canine subjects [1]; topical LC 0.002%, Day 4, drop 8:30): 0
AE (adverse event) (canine subjects [1]; topical LC 0.002%, Day 5, drop 9:00): 0
AE (adverse event) (canine subjects [1]; topical LC 0.002%, Day 5, drop 14:30): 0
AE (adverse event) (canine subjects [1]; topical LC 0.020%, Day 7, drop 9:00): 0
AE (adverse event) (canine subjects [1]; topical LC 0.020%, Day 7, drop 15:00): 0
AE (adverse event) (canine subjects [1]; topical LC 0.050%, Day 9, drop 9:00): 0
AE (adverse event) (canine subjects [1]; topical LC 0.050%, Day 9, drop 15:00): 0
AE (adverse event) (canine subjects [1]; topical LC 0.100%, Day 11, drop 9:00): 0
AE (adverse event) (canine subjects [1]; topical LC 0.100%, Day 11, drop 15:00): 0
skin sensitivity in guinea pigs (guinea pigs): no skin sensitivity
water solubility [2]: low
EPA toxicity class, skin effects for rats (rats): moderately toxic
EPA toxicity class when inhaled [3]: moderately toxic
reduction in intraocular pressure after topical administration (canine subjects [4]; Example 1, canine, 0.002% to 0.100% (by weight), dose related): significant reduction
IOP OD (canine subjects [4]; [6]): 8
IOP OS (canine subjects [4]; [6]): 7
IOP OD (canine subjects [4]; [7]): 8
IOP OS (canine subjects [4]; [7]): 8
IOP OD (canine subjects [4]; [8]): 6
IOP OS (canine subjects [4]; [8]): 7
IOP OD (canine subjects [4]; [9]): 7
IOP OS (canine subjects [4]; [9]): 7
IOP OD (canine subjects [4]; [10]): 8
IOP OS (canine subjects [4]; [10]): 7
IOP OD (canine subjects [4]; [11]): 13
IOP OS (canine subjects [4]; [11]): 10
IOP OD (canine subjects [4]; [12]): 6
IOP OS (canine subjects [4]; [12]): 7
IOP OD (canine subjects [4]; [13]): 9
IOP OS (canine subjects [4]; [13]): 8
IOP OD (canine subjects [4]; [14]): 12
IOP OS (canine subjects [4]; [14]): 11
IOP OD (canine subjects [4]; [15]): 7
IOP OS (canine subjects [4]; [15]): 7
IOP OD (canine subjects [4]; [16]): 7
IOP OS (canine subjects [4]; [16]): 7
IOP OD (canine subjects [4]; [17]): 9
IOP OS (canine subjects [4]; [17]): 10
IOP OD (canine subjects [4]; [18]): 7
IOP OS (canine subjects [4]; [18]): 7
IOP OD (canine subjects [4]; [19]): 7
IOP OS (canine subjects [4]; [19]): 7
IOP OD (canine subjects [4]; [20]): 6
IOP OS (canine subjects [4]; [20]): 6
IOP OD (canine subjects [4]; [21]): 7
IOP OS (canine subjects [4]; [21]): 8
IOP OD (canine subjects [4]; [22]): 8
IOP OS (canine subjects [4]; [22]): 7
IOP OD (canine subjects [4]; [23]): 7
IOP OS (canine subjects [4]; [23]): 7
IOP OD (canine subjects [4]; [24]): 6
IOP OS (canine subjects [4]; [24]): 5
persistence of the reduction of intra-ocular pressure (canine subjects [4]; after exposure): hours to days
reduction of IOP (canine subjects [4]; canine, dosages ranging from 0.002% to 0.700% LC (by weight), overall): 35-40%
IOP OD (intraocular pressure right eye) (canine subjects [4]; [25]): 8
IOP OS (intraocular pressure left eye) (canine subjects [4]; [25]): 8
IOP OD (intraocular pressure right eye) (canine subjects [4]; [26]): 8
IOP OS (intraocular pressure left eye) (canine subjects [4]; [26]): 8
IOP OD (intraocular pressure right eye) (canine subjects [4]; [27]): 8
IOP OS (intraocular pressure left eye) (canine subjects [4]; [27]): 9
IOP OD (intraocular pressure right eye) (canine subjects [4]; [28]): 10
IOP OS (intraocular pressure left eye) (canine subjects [4]; [28]): 9
IOP OD (intraocular pressure right eye) (canine subjects [4]; [29]): 10
IOP OS (intraocular pressure left eye) (canine subjects [4]; [29]): 7
IOP OD (intraocular pressure right eye) (canine subjects [4]; [30]): 11
IOP OS (intraocular pressure left eye) (canine subjects [4]; [30]): 11
IOP OD (intraocular pressure right eye) (canine subjects [4]; [31]): 7
IOP OS (intraocular pressure left eye) (canine subjects [4]; [31]): 8
IOP OD (intraocular pressure right eye) (canine subjects [4]; [32]): 9
IOP OS (intraocular pressure left eye) (canine subjects [4]; [32]): 10
IOP OD (intraocular pressure right eye) (canine subjects [4]; [33]): 11
IOP OS (intraocular pressure left eye) (canine subjects [4]; [33]): 5
onset of symptoms after exposure (Humans): ≤ 30 min
symptoms reported on exposure (Humans): facial tingling and burning
EPA toxicity class, eye effects [5]: moderately toxic
toxicity in skin effects for rabbits (rabbits): low toxicity
